# Reference: ChEMBL document CHEMBL1201862, “PubChem BioAssay data set” (2004)
# The source made the active and inactive calls.
# Assays:
# [1] = inhibitors of intracellular T. cruzi replication, confirmation, NIH3T3 host cells, beta-gal luminescence (AID 2044); format: functional, cell-based;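 also: intracellular parasites grown in NIH/3T3 mouse fibroblasts as host cells; luminescent beta-galactosidase reporter signal from transgenic T. cruzi replicating inside host cells; inhibitors lower the luminescence signal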
# [2] = molecular target: T1, Short transient receptor potential channel 4 (Mus musculus, UniProt Q9QUQ5); test: mouse TRPC4 channel activators, dose response, cell-based, HEK293 TRPC4/mu-opioid, Fluo-4 calcium (AID 434937); format: functional
# T1 sequence (Q9QUQ5 whole entry): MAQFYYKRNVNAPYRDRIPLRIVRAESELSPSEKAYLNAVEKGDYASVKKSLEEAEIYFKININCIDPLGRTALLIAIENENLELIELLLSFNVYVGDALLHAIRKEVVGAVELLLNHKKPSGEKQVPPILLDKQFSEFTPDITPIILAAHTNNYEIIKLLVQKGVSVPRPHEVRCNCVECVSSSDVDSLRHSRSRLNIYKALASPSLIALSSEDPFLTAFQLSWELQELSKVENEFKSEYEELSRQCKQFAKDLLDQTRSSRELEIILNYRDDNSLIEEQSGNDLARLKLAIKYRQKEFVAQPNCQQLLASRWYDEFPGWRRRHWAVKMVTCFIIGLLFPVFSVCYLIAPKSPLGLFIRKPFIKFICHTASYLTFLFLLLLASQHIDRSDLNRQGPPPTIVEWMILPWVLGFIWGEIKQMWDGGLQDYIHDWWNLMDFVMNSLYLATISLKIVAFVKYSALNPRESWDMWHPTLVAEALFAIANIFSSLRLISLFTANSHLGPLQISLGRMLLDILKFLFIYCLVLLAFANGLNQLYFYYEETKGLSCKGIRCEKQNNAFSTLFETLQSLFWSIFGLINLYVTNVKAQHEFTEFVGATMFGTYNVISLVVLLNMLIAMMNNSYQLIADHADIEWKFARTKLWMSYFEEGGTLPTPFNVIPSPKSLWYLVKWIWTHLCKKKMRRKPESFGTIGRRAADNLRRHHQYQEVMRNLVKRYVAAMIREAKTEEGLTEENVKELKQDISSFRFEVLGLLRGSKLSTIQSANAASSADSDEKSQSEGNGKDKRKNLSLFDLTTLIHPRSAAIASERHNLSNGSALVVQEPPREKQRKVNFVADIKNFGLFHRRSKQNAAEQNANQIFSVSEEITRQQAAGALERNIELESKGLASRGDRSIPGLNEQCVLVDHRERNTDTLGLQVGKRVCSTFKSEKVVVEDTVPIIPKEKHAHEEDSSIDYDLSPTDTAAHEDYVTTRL
# [3] = cytotoxicity toward NIH3T3 fibroblasts, dose response, counter-screen, cell-based, ATP luminescence, mouse fibroblasts (AID 2010); format: functional;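 also: cells exposed to compound for about 90 hours before reading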
# [4] = molecular target: T2, Hepatocyte nuclear factor 4-alpha (Homo sapiens, UniProt P41235); format: functional, cell-based;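 also: biochemical luminescence-based dose-response counterscreen measuring inhibition of HNF4 dimerization, run alongside a screen for blockers of ABHD5–perilipin-5 interaction; split luciferase complementation of HNF4 fusion proteins in cell lysate measuring dimerization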
# T2 sequence (P41235 whole entry): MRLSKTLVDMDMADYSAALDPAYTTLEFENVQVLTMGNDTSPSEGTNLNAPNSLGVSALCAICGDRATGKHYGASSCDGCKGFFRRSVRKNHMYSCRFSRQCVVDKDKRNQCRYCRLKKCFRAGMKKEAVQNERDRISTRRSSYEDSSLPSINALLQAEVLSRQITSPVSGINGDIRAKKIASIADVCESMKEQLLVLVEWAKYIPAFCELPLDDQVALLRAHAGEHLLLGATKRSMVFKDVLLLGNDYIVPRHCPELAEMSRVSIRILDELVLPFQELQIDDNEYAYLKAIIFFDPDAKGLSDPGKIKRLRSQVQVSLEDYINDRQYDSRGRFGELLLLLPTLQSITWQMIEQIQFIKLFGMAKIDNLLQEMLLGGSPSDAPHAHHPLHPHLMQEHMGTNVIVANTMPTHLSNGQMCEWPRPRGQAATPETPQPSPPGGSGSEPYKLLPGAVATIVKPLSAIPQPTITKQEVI
# cells = format: functional
# [5] = Vero E6 cell cytotoxicity, dose response, cytotoxicity control for non-replicating M. tuberculosis project, secondary assay (AID 492998); format: functional, VeroE6; settings: Vero C1008
# [6] = Shn3 3'UTR reporter inhibitors, dose response, cell-based, Clone20 osteoblasts, firefly luciferase, cherry-picked (AID 624132); format: functional;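 also: firefly luciferase luminescence from reporter carrying the Shn3 3'UTR in osteoblasts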
# [7] = control 3'UTR Renilla luciferase suppression, dose response, counter-screen for Shn3 inhibitor project, cell-based, Clone20-Shn3RL, cherry-picked (AID 624133); format: functional
# [8] = HepG2 cell cytotoxicity, dose response, cytotoxicity control for Shn3 inhibitor project, CellTiter-Glo, cherry-picked (AID 624134); format: functional, cell-based
# [9] = cytotoxicity in HEK-293T cells, dose response, cytotoxicity control for TCR NF-kB inhibitor project, luminescence, T-cell screen hits (AID 489026); format: functional, cell-based;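 also: cells exposed to compound about 14 hours before the viability readout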
# [10] = molecular target: T3, Replicative DNA helicase DnaB (Mycobacterium tuberculosis, UniProt P9WMR3); test: DnaB intein splicing inhibitors, dose response, biochemical, cell-free fluorescence (AID 449749); format: functional
# T3 sequence (P9WMR3 whole entry): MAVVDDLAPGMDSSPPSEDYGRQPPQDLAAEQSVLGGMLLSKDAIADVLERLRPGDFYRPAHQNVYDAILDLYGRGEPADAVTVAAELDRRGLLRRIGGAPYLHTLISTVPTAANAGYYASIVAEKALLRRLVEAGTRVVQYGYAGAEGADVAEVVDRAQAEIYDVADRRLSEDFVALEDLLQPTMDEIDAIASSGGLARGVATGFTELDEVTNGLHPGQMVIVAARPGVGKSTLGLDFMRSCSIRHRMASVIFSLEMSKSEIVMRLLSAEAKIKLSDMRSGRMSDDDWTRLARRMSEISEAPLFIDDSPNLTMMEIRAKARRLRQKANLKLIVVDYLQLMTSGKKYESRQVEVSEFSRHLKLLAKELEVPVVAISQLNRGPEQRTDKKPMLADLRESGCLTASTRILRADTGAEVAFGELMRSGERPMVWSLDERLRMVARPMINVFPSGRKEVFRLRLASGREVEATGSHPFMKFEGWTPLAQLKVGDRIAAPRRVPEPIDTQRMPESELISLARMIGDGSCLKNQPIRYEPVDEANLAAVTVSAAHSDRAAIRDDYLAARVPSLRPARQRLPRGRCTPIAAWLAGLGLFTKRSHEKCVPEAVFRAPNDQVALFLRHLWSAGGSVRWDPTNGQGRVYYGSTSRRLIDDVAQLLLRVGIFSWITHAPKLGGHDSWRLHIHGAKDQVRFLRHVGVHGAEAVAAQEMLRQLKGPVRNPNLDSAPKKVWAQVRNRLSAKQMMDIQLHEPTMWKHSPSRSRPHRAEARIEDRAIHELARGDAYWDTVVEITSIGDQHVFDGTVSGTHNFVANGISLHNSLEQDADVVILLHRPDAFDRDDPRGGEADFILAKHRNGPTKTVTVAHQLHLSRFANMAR
# [11] = Luminescence Cell-Based Dose Retest to Confirm Inhibitors of Cancer Stem Cells. [Related pubchem assays (depositor defined):AID2717, AID2721]; format: functional; settings: Homo sapiens
# Protein RecA = molecular target: T4, Protein RecA (Mycobacterium tuberculosis, UniProt P9WHJ3); test: Fluorescence Cell-Free Homogeneous Dose Retest to Identify Inhibitors of RecA-Intein Splicing Activity. [Related pubchem assays (depositor defined):AID2097, AID2223, AID489010, AID492950]; format: functional
# T4 sequence (P9WHJ3 whole entry): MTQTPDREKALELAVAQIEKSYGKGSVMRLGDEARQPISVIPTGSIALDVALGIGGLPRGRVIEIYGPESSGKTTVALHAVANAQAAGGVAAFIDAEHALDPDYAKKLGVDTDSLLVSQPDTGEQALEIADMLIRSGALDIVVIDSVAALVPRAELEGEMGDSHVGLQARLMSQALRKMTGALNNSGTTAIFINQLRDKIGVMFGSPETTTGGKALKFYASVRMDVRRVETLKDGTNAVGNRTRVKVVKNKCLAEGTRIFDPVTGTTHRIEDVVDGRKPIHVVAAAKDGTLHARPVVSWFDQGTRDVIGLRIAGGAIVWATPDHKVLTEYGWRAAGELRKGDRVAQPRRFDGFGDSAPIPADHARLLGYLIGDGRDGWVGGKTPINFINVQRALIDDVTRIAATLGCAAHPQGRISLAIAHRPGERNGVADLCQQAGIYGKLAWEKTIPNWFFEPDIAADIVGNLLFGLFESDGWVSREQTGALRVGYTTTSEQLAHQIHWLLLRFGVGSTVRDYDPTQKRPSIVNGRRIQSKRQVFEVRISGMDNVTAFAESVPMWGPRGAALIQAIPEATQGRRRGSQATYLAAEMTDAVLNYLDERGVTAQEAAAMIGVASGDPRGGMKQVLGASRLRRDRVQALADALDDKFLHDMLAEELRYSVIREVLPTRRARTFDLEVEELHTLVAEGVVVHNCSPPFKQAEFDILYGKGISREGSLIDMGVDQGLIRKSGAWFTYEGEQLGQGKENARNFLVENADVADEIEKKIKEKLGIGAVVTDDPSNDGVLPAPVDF
smiles,measurement,setting,value
COc1ccc(CCNCc2ccc(SC)cc2)cc1,EC50,[1],0.225 µM (active)
same,EC50,[2],5.31 µM (active)
same,EC50,[3],> 60 µM (not active)
O=C(NCc1ccccc1)C(c1ccc(C(F)(F)F)cc1)n1c(=O)c(-c2ccco2)nc2ccccc21 (configuration not stated),IC50,[4],2.02 µM (active)
O=C(N/N=C/c1ccccn1)c1ccccc1,IC50,cells,> 50 µM (active)
same,CC50,[5],> 20 µM (active)
Cc1ccc2nc(-c3cccc(SC4CCCCC4)c3)c(NCc3ccccc3)n2c1,AC50,[6],3.53 µM (active)
same,AC50,[7],5.3 µM (active)
same,AC50,[8],> 70 µM (inactive)
CCOC(=O)c1[nH]c(C)c(C(=O)Nc2cc(Cl)ccc2C)c1C,IC50,[9],> 80 µM (inactive)
CCCCN(CC)CCNC(=O)Cn1cc2c(n1)-c1c(oc(C(=O)N3CCCC3)c1C)CC2,EC50,[2],0.267 µM (active)
CCCCCNC(=O)C(c1ccccc1F)n1c(=O)c(-c2ccco2)nc2ccccc21 (configuration not stated),IC50,[4],0.97 µM (active)
Cc1cc(C)c(C(CC(=O)c2cccs2)C(C#N)C#N)c(C)c1 (configuration not stated),AC50,[10],3.42 µM (active)
same,AC50,[11],5.08 µM (active)
same,IC50,[4],8.02 µM (active)
same,EC50,Protein RecA,2.31 µM (active)
Cc1sc2ncnc(NCC(c3ccco3)N3CCCC3)c2c1C (configuration not stated),EC50,[2],0.0173 µM (active)
